Results on one molecule are retold here after paper PMC8624457, “Synthesis and Characterization of the Ethylene-Carbonate-Linked L-Valine Derivatives of 4,4-Dimethylcurcumin with Potential Anticancer Activities” (Molecules, 2021).

The nature of the series: Storage stability by HPLC purity / 1H NMR. The class given is physicochemical. The following applies: room temperature, 6 days, fresh prepared 95.74%. How it is done: The procedures employed for the synthesis of targeted compounds 1 and 2 are depicted in Scheme 1. The required DMCU was prepared according to a three-step sequence reported in the literature. Initially, the commercially available Boc-L-valine 3 was reacted with 2-aminoethanol 4 in the presence of HOTT and Et3N to provide the amide product 5 in 82% yield. Under treatment with 4-nitrophenyl chloroformate and DIPEA, 5 was converted into 6 in 87% yield. One equivalent or excess amount of 6 was coupled with the deprotonated DMCU, formed in situ by the treatment of DMCU with Cs2CO3, to afford compound 7 and 8, respectively. Compound 7 and 8 thus obtained were subjected to Boc deprotection under the standard conditions to give 1 and 2, respectively. The preliminary stability test was performed with NMR by applying 2 as a typical example. […] Based on our previous experience in the synthesis of DMCU-HMP, the instability could be ascribed to the cross-hydrolysis of carbonate group by the terminal amino group of side chain. Salt formation reactions of the N-terminal L-valine were then carried out to cap the nucleophilic amino group. […] 2-TFA is also stable in DMSO solution (0.1 M concentration). After 6-day storage at room temperate, the purity of 2-TFA remained intact. Accordingly, a similar salt formation procedure was employed to produce the stable 1-TFA. Compound 1-TFA along with 2-TFA were then applied for the following evaluations.
Figure 2 The stability assessments of 2 and 2-TFA. (A) A clear solution of 2 in d-chloroform was subjected to a purity assessment by ^1H NMR spectroscopy at various storage times (fresh prepared (≤1 h); 1 day; 4 days). (B) The HPLC purity of fresh prepared 2-TFA was 95.74%. The fresh prepared 2-TFA in a solid state was stored at room temperature for another 6 days and then dissolved in water for HPLC analysis. The HPLC purity was decided as 95.55%. The fresh prepared 2-TFA was dissolved in DMSO and the resulting solution was stored at room temperature for another 6 days. HPLC purity of 2-TFA in the DMSO solution was 94.66%. […]

Counter-ions that a name gives are not always drawn.

Regarding `COc1cc(/C=C/C(=O)C(C)(C)C(=O)/C=C/c2ccc(OC(=O)OCCNC(=O)[C@@H](N)C(C)C)c(OC)c2)ccc1OC(=O)OCCNC(=O)[C@@H](N)C(C)C` [Compound 2-TFA], the “HPLC purity after storage in DMSO solution” value (DMSO solution (0.1 M)) is recorded as 94.66%. Also, the “HPLC purity after storage as solid” value (solid state) is 95.55%.
